We go through three compounds from patent US20050004155A1, “Use of methylnaltrexone to treat irritable bowel syndrome” (priority 2003, published 2005).

The test system of one data set is patients with IBS. The conditions noted are these: 0.4 mg intravenously; 50 patients; versus placebo; cited from earlier work.
The subject of data set [1] is subjects with IBS of the constipation-predominant and alternating types. As to conditions: 1 mg twice daily for 8 weeks; 25 subjects; cited from earlier work.
For data set [2], the system named is patients with constipation-predominant IBS. As to conditions: 16 mg three times a week over eight weeks, cited from earlier work.
The subject of data set [3] is normal subjects. The data set can be described thus: Oral-cecal transit time by lactulose hydrogen breath test. Type of data set: in vivo, human. As to conditions: 12 doses of 0.3 mg/kg every 6 hours intravenous; 12 normal subjects not receiving opioids; mean±SD; baseline mean 101.3±29.4 minutes; P<0.05. The protocol: (§1) With approval from the Institutional Review Board, 12 normal subjects (8 males and 4 non-pregnant females) participated in a controlled trial. The mean age was 29.3±5.8 (mean+/−standard deviation [SD]) years. […] Subjects were administered 12 consecutive doses of methylnaltrexone at a dosage rate of 0.3 mg/kg every 6 hours via intravenous injection. Methylnaltrexone was dissolved in isotonic saline for administration in this study. No other excipients were present in the administered solution. Oral-cecal transit time was measured prior to the first dose and after the last dose, following repeated dosing for 3 days, using a lactulose hydrogen breath test (Yuan, C. S., et al., Clin. Pharmacol. Ther. 1996;59:469-475). A subjective rating test for possible opioid agonist effects was also employed (Yuan, C. S., et al., Drug Alcohol Dependence 1998;52:161-165). […] The reduction in the means was statistically significant at the level of P<0.05 using the paired t-test and the Wilcoxon signed rank test. […] The absence of statistically significant changes in overall subjective opioid ratings is consistent with the lack of penetration into the central nervous system by methylnaltrexone.

The test system of data set [4] is normal subjects. The data set can be described thus: Adverse effects during repeated intravenous dosing. Type of data set: in vivo, human. As to conditions: 12 doses of 0.3 mg/kg every 6 hours intravenous. The protocol:
as §1

The conditions of data set [5]: white crystalline powder; cited from earlier work.

For the compound `C=CCN1CC[C@]23c4c5ccc(O)c4O[C@H]2C(=O)CC[C@@]3(O)[C@H]1C5` [naloxone], in the data set on patients with IBS, the “degree of muscle spasm and relative intensity of pain” value is “not associated with any objective or subjective evidence of beneficial effect”. Also, in data set [1], the “adequate symptom relief versus placebo” value is “not statistically significantly different”; the “subjective ratings such as severity ratings and pain scores” value is reported as “Marginal but non-statistically significant improvements”.

`C=C1CCC2(O)C3Cc4ccc(OC5OC(C(=O)O)C(O)C(O)C5O)c5c4C2(CCN3CC2CC2)C1O5` (stereo not shown) [nalmefene glucuronide]: in data set [2] (patient reported), the gut transit time entry is reported as “decreased” and the stool frequency entry is “increased”. In data set [2], the “abdominal pain or bloating” value is given as “did not reduce” and the stool consistency entry is recorded as “not improved”.

Regarding `C[N@+]1(CC2CC2)CC[C@]23c4c5ccc(O)c4O[C@H]2C(=O)CC[C@@]3(O)[C@H]1C5` [methylnaltrexone, N-methyl-naltrexone bromide], the “oral-cecal transit time after 3 days of treatment” value in the data set on normal subjects [3] worked out at 82.5 ± 20.7 min. The adverse effects result in the data set with normal subjects [4] is reported as “No significant adverse effects”. In addition, the solubility in water entry in data set [5] is listed as “freely soluble in water”.
